Publication PMC7392887, “Structural signatures in EPR3 define a unique class of plant carbohydrate receptors” (Nature Communications, 2020)

T1: EPR3 (Lotus japonicus, UniProt D3KU53)
T1 construct: gene LYS3; ectodomain (M1, M2, LysM3, stem), residues 33-232; N-terminal gp67 secretion signal, C-terminal 6xHis tag; secreted from Sf9 insect cells (baculovirus); glycosylated or PNGase F-treated; monomer
T1 sequence (D3KU53 33-232): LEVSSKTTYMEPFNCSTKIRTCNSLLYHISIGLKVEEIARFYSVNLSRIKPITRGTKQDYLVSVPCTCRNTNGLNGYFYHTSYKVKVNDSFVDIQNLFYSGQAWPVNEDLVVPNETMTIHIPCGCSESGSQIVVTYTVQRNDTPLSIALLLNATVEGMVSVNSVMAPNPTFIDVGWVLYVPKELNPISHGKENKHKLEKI

T2: Lotus japonicus exopolysaccharide receptor 3 (EPR3) ectodomain (Lotus japonicus ecotype Gifu, N-linked oligosaccharides (glycosylated))
T2 construct: EPR3 (exopolysaccharide receptor 3), Lotus japonicus ecotype Gifu, ectodomain, residues 33-232; Codon-optimised for insect cells, vector pOET2; also called Lotus EPR3; glycosylated EPR3; source: Sf9 (baculovirus), secreted into the medium, purified (HisTrap excel, HisTrap HP, Superdex 75)
T2 chain: T1 sequence (D3KU53 33-232)

B1: Nb186 (VHH)
VHH: QVQLVESGGGLVQPGGSLRLSCAASGSIFSIDYMGWYRQAPGKERELVAIKTSGGTTHYADSVKGRFTISRDNAKNTVYLQMNSLKPDDTAVYYCNARVYFGDRDYWGQGTQVTVSS
notes: llama (Lama glama) nanobody selected by phage display against EPR3; Cloned into pET22b(+) for bacterial expression; also called nanobody Nb186; source: E. coli LOBSTR, purified (Ni Sepharose 6 FF, Superdex 75)

Columns and labels:
EPR3 = target: T1, EPR3; assay: microscale thermophoresis; format: binding; conditions: labelled EPR3 (Blue NHS, 100 nM); 50 mM K2PO4 pH 7.8, 500 mM NaCl, 0.05% Tween-20; 25 °C; n = 3
[1] = target: T2, Lotus japonicus exopolysaccharide …; assay: SEC; analytic Superdex 75 Increase 3.2/300 column; mobility shift of the complex; conditions: both partners purified

Row | Molecule | Kd (EPR3) [µM] | binding result [1]
1 | O=C(O)[C@H]1O[C@@H](O[C@H]2[C@H](O)[C@@H](O)[C@@H](O[C@H]3[C@H](O)[C@@H](O)[C@H](OC[C@H]4O[C@@H](OC[C@H]5O[C@@H](O[C@H]6[C@H](O)[C@@H](O)[C@H](O[C@H]7[C@H](O)[C@@H](O)[C@H](O[C@H]8[C@@H](O)[C@@H](CO)OC(O)[C@@H]8O)O[C@@H]7CO)O[C@@H]6CO)[C@H](O)[C@@H](O)[C@@H]5O)[C@H](O)[C@@H](O)[C@@H]4O)O[C@@H]3CO)O[C@@H]2C(=O)O)[C@H](O)[C@@H]1O (some centres unmarked) [deOAc-EPS] | 31.3 ± 11.7 | –
2 | B1 | – | binds
